# According to PMC9186361 (Drug Delivery, 2022):
# Assays:
# PDI = system: PDI; parameters: method as in Jasuja et al., 2012; conditions: insulin-based turbidimetric assay; 95% CI 1.1–10.7 μM; ref Jasuja et al., 2012; read-out: IC50 of PDI inhibition; cited from earlier work
# thrombin = biological target: T1, thrombin (Homo sapiens, UniProt P00734); experiment: Hydrolysis of chromogenic substrate S2238 by thrombin in vitro; format: biochemical; conditions: rutin up to 50 μM, 0.4 U/mL thrombin
# T1 construct: Human thrombin was purchased from Hematologic Technologies Inc. (Essex Junction, VT); purchased Hematologic Technologies Inc. (Essex Junction, VT)
# Excerpt: We tested the antithrombotic effects of NanoR and NaR ex vivo and in vivo. Thrombin plays a pivotal role in the coagulation process, and its amount reflects the hemostatic function (Mann, [2003]). […] In our clot formation study, the treatment with NanoR and NaR led to delayed clotting initiation time and a limited extent of clot formation. Again, NanoR exerted a stronger anticoagulatory effect than NaR, and excess exogenous PDI restored the coagulation function of pretreated plasma in clot formation assay. […] The link between obstructive atherosclerosis in the epicardial coronary arteries and myocardial ischemia is well established. In the past several decades, however, a number of studies have discovered that coronary microvascular dysfunction and remodeling contribute to myocardial ischemia in patients with normal coronary arteries. […] Recently, a novel two-stage mechanism for the action of FeCl3 in thrombus formation has been proposed. The first stage is based on colloidal chemistry principles whereby cells and plasma proteins adhere and aggregate due to the binding of negatively charged proteins to positively charged iron species. The extent of this stage is dependent on effective FeCl3 concentration, which is governed by intraluminal mass transport. […] (A) The hydrolysis of chromogenic substrate S2238 by different concentrations of thrombin was determined.
# [1] = Saturation solubility of rutin by shake flask method; format: physicochemical; conditions: thermodynamic from solid
smiles,measurement,setting,value
"C[C@@H]1O[C@@H](OC[C@H]2O[C@@H](Oc3c(-c4ccc(O)c(O)c4)oc4cc(O)cc(O)c4c3=O)[C@H](O)[C@@H](O)[C@@H]2O)[C@H](O)[C@H](O)[C@H]1O [rutin, quercetin-3-O-rutinoside]",IC50,PDI,6.1 µM
same,effect on thrombin activity (hydrolysis of S2238),thrombin,did not inhibit thrombin proteolytic activity
same,effect on thrombin activity (hydrolysis of S2238),thrombin; listed as native rutin,did not affect the activity of thrombin
same,solubility at 72 h,"[1]; organic solvent or mixture, in 1,2-propylene glycol, 37 °C, 72 h",32 ± 2 mg/mL
same,solubility at 72 h,"[1]; self-emulsifying formulation F2, 37 °C, in formulation F2",24.3 ± 3.2 mg/mL
same,solubility at 72 h,"[1]; self-emulsifying formulation F5, 37 °C, in formulation F5",19.2 ± 2.8 mg/mL
same,solubility at 72 h,"[1]; self-emulsifying formulation F7, 37 °C, in formulation F7",16.2 ± 3.7 mg/mL
same,solubility at 72 h,"[1]; in Labrasol, 37 °C, 72 h",5.2 ± 0.18 mg/mL
